Where “and” joins values, the source holds several entries; their conditions need not be identical. Identical values can stand only once.
Assays:
[1] = tested on: SK-OV-3 (ovarian) cancer cell line; assay: Sulforhodamine B (SRB) growth inhibition assay, SK-OV-3; assay type: cell-based, human; conditions: 48 h treatment
Source text: (§1) Cell Lines and Sulforhodamine B (SRB) Assay.
(§2) The sulforhodamine B (SRB) assay was used to assess growth inhibition of human cancer cells, as previously described. DU-145, SK-OV-3, and NCI-H460 cancer cell lines (obtained from ATCC) were maintained in T75 flasks (Corning) using high glucose DMEM supplemented with 10% fetal bovine serum (Gibco)/1% gentamicin sulfate for a maximum of 15 passages. For these experiments, cells were trypsinized, counted, and plated at 7000-8000 cells/well into 96-well plates (Corning) and incubated for 24 h at 37° C. in a humidified incubator in a 5% CO2 atmosphere. Compounds to be tested were dissolved in DMSO to generate a 10 mg/mL stock solution, and serial dilutions added in media to the plates. Doxorubicin (Sigma-Aldrich) and paclitaxel (Tokyo Chemical) were used as positive controls. After a 48 h treatment, the cells were fixed with trichloroacetic acid (10% final concentration), washed, dried, stained with SRB dye, washed to remove excess dye, and dried. SRB dye was solubilized, and absorbances were measured at wavelength 540 nm and normalized to values at wavelength 630 nm using an automated Biotek plate reader.

tubulin = assay: Colchicine binding assay (inhibition of [3H]colchicine binding to tubulin); conditions: 1.0 μM tubulin, 5.0 μM [3H]colchicine
Description: Colchicine Binding Assay.
Inhibition of [^3H]colchicine binding to tubulin was measured in 0.1 mL reaction mixtures, each containing 1.0 μM tubulin, 5.0 μM [^3H]colchicine (Perkin-Elmer), 5% (v/v) dimethyl sulfoxide, […], and components that stabilize the colchicine binding activity of tubulin (1.0 M monosodium glutamate [adjusted to pH 6.6 with HCl in a 2.0 M stock solution], 0.5 mg/mL bovine serum albumin, 0.1 M glucose-1-phosphate, 1.0 mM MgCl2, and 1.0 mM GTP). […] Reactions were stopped with 2.0 mL of ice-cold water, with the reaction mixtures being placed on ice. Each diluted sample was poured onto a stack of two DEAE-cellulose filters (GE Biomedical), followed by 3 successive 2 mL aliquots of ice-cold water. A reduced vacuum was used to remove excess water from the filters, which were washed three times with 2 mL water and placed into vials containing 5 mL of Biosafe II scintillation cocktail. Samples were counted 18 h later in a Beckman scintillation counter. Samples with inhibitors were compared to samples with no inhibitor, and percent inhibition was determined, correcting all values for the amount of radiolabel bound to the filters in the absence of tubulin.

[2] = tested on: DU-145 (prostate) cancer cell line; assay: Sulforhodamine B (SRB) growth inhibition assay, DU-145; assay type: cell-based, human; conditions: 48 h treatment
Source text: as §1, §2

[3] = tested on: NCI-H460 (lung) cancer cell line; assay: Sulforhodamine B (SRB) growth inhibition assay, NCI-H460; assay type: cell-based, human; conditions: 48 h treatment
Source text: as §1, §2

[4] = molecular target: T1, purified bovine brain tubulin (Bos taurus, UniProt P81947+Q6B856); assay: Inhibition of tubulin polymerization (turbidimetric, cell-free); assay type: biochemical; conditions: for IC50: 10 μM tubulin, extent of polymerization after 20 min at 30° C., read-out: Inhibition of tubulin polymerization IC50 (μM) ± SD; for inhibition of tubulin polymerization (in words): cell-free assay
T1 construct: purified bovine brain tubulin; from tissue; host or cells: bovine brain
Description: Inhibition of Tubulin Polymerization.
Tubulin polymerization was evaluated in 0.25 mL reaction mixtures (final volume) containing 1 mg/mL (10 μM) purified bovine brain tubulin, 0.8 M monosodium glutamate (pH 6.6), 4% (v/v) dimethyl sulfoxide, 0.4 mM GTP, and different compound concentrations. All components except GTP were preincubated for 15 min at 30° C. in 0.24 mL. The assay mixtures were cooled to 0° C., and 10 μL of 0.01 M GTP was added to each sample. Reaction mixtures were transferred to cuvettes held at 0° C. in Beckman DU-7400 and DU-7500 spectrophotometers equipped with electronic temperature controllers. The temperature was increased to 30° C., over about 30 s, and polymerization was followed turbidimetrically at 350 nm for 20 min.

T1 sequence (Q6B856 whole entry): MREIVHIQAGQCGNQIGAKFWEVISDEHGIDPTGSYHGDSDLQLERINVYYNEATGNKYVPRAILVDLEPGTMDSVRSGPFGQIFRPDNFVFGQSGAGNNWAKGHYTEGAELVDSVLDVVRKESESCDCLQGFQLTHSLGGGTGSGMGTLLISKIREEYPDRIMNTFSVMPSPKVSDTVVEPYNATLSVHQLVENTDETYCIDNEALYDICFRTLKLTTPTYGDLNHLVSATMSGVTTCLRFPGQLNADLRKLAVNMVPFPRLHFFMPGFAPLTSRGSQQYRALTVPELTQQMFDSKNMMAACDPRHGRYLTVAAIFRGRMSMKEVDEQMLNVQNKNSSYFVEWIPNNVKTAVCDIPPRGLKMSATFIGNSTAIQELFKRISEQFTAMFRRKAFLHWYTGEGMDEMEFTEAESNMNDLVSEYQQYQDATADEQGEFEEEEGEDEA
T1 sequence (P81947 whole entry): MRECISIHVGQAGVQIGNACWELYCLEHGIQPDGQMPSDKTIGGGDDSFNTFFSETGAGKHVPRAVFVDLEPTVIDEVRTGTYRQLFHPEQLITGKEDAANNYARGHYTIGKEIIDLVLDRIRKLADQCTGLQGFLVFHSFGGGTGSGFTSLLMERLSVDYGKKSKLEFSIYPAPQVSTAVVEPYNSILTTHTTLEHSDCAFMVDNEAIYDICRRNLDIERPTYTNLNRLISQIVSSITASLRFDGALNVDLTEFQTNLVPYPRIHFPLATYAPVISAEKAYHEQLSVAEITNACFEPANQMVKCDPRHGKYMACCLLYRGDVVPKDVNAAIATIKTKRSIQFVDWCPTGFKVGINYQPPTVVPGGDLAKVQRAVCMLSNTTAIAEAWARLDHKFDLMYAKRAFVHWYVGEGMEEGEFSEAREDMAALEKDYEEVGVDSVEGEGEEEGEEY

Compound | GI50 ([1]; Homo sapiens, SK-OV-3) [nM] | % Inhibition of colchicine binding ± SD (tubulin; compound at 5 μM) | GI50 ([2]; Homo sapiens, DU-145) [nM] | GI50 ([3]; Homo sapiens, NCI-H460) [nM] | IC50 [4] | inhibition of tubulin polymerization (in words) [4] | % Inhibition of colchicine binding ± SD (tubulin; compound at 1 μM) | GI50 [1] [nM] | GI50 [2] [nM] | GI50 [3] [nM]
COc1ccc2c(c1O)CCCC(Br)=C2c1cc(OC)c(OC)c(OC)c1 [Compound 33, 8-Bromo-3-methoxy-9-(3,4,5-trimethoxyphenyl)-6,7-dihydro-5H-benzo[7]annulen-4-ol] | 22.1 | 88 ± 1 (5 μM) % | 36.2 | 35.3 | 0.39 ± 0.06 µM | – | – | – | – | –
COc1ccc2c(c1C)CCCC=C2c1cc(OC)c(OC)c(OC)c1 [Compound 9, 1-methy-2-methoxy-5-(3′, 4′, 5′-trimethoxyphenyl)-benzosuber-5-ene] | 330 | 65 ± 0.6 (5 μM) % | 644 | 422 | 1.6 ± 0.2 µM | – | – | – | – | –
COc1cc(C2(O)C=CCCc3c2ccc(OC)c3OC)cc(OC)c1OC (centres unmarked) [Compound 76, 1,2-Dimethoxy-5-(3,4,5-trimethoxyphenyl)-8,9-dihydro-5H-benzo[7]annulen-5-ol] | 27200 | 0 (5 μM) % | 26000 | 70500 | > 20 µM | lack of tubulin activity | – | – | – | –
COc1ccc2c(c1C)CCCC(Br)=C2c1cc(OC)c(OC)c(OC)c1 [Compound 34, 8-Bromo-3-methoxy-4-methyl-9-(3,4,5-trimethoxyphenyl)-6,7-dihydro-5H-benzo[7]annulene] | 312 | – | 423 | 449 | 4.9 ± 0.1 µM | – | 35 ± 5 (1 μM) % | – | – | –
COc1ccc2c(c1O)CCCC=C2c1cc(OC)c(OC)c(OC)c1 [KGP18, 3-Methoxy-9-(3,4,5-trimethoxyphenyl)-6,7-dihydro-5H-benzo[7]annulen-4-ol, reference compound] | 0.0543 | 95 ± 0.5% | 0.0249 | 0.0418 | ~0.85 µM and 0.85 µM | – | 73 ± 5% | – | – | –
COc1ccc2c(c1O)CCCC(O)C2(O)c1cc(OC)c(OC)c(OC)c1 (centres unmarked) [Compound 35, 2-Methoxy-5-(3,4,5-trimethoxyphenyl)-6,7,8,9-tetrahydro-5H-benzo[7]annulene-1,5,6-triol] | 3030 | 0 (5 μM) % | 4040 | 3860 | > 20 µM | reduced inhibition of tubulin polymerization | – | – | – | –
COc1cccc2c1C(=O)c1c(O)c3c(c(O)c1C2=O)C[C@@](O)(C(=O)CO)C[C@@H]3O[C@H]1C[C@H](N)[C@H](O)[C@H](C)O1 [Doxorubicin, reference compound] | 78.9 | – | 134 | 123 | – | – | – | – | – | –
COc1ccc(/C=C\c2cc(OC)c(OC)c(OC)c2)cc1O [CA4, combretastatin A-4, reference compound] | – | – | – | – | – | – | 84 ± 3% | 4.55 | 3.27 | 2.23
COc1ccc2c(c1C#N)CCCC=C2c1cc(OC)c(OC)c(OC)c1 [Compound 38, 3-Methoxy-9-(3,4,5-trimethoxyphenyl)-6,7-dihydro-5H-benzo[7]annulene-4-carbonitrile] | – | 62 ± 0.7 (5 μM) % | 860 | 434 | 1.1 ± 0.1 µM | – | – | 64.8 | – | –
COc1cc(C2=CC(O)CCc3c2ccc(OC)c3OC)cc(OC)c1OC (centres unmarked) [Compound 57, 3,4-Dimethoxy-9-(3,4,5-trimethoxyphenyl)-6,7-dihydro-5H-benzo[7]annulen-7-ol] | 263 | 28 ± 4 (5 μM) % | 439 | 432 | 3.8 ± 0.5 µM | reduced inhibition of tubulin polymerization | – | – | – | –
COc1ccc2c(c1O)CCCC1=C2c2cc(OC)c(OC)c(OC)c2C1=O [Compound 91, 4-Hydroxy-3,9,10,11-tetramethoxy-6,7-dihydrodibenzo[a,h]azulen-8(5H)-one] | 39.9 | 45 ± 4 (5 μM) % | 32.1 | 105 | 4.2 ± 0.2 µM | – | – | – | – | –
COc1ccc2c(c1O)CCCCC2(O)c1cc(OC)c(OC)c(OC)c1 (centres unmarked) [Compound 23, 2-Methoxy-5-(3,4,5-trimethoxyphenyl)-6,7,8,9-tetrahydro-5H-benzo[7]annulene-1,5-diol] | 394 | – | 33 | 173 | > 20 µM | reduced inhibition of tubulin polymerization | – | – | – | –
COc1ccc2c(c1C=O)CCCC=C2c1cc(OC)c(OC)c(OC)c1 [Compound 40, 3-Methoxy-9-(3,4,5-trimethoxyphenyl)-6,7-dihydro-5H-benzo[7]annulene-4-carbaldehyde] | 57.2 | 61 ± 3 (5 μM) % | 40.2 | 84.7 | 3.2 ± 0.08 µM | – | – | – | – | –
CC(=O)O[C@H]1C(=O)[C@@]2(C)[C@H]([C@H](OC(=O)c3ccccc3)[C@]3(O)C[C@H](OC(=O)[C@H](O)[C@@H](NC(=O)c4ccccc4)c4ccccc4)C(C)=C1C3(C)C)[C@]1(OC(C)=O)CO[C@@H]1C[C@@H]2O [Paclitaxel, paclitaxel, reference compound] | 1.34 | – | 1.47 | 1.76 | – | – | – | – | – | –
CCCCc1c(OC)ccc2c1CCCC=C2c1cc(OC)c(OC)c(OC)c1 [Compound 20, 4-Butyl-3-methoxy-9-(30,40,50-trimethoxyphenyl)-6,7-dihydro-5H-benzo[7]annulene] | 11500 | – | 12200 | 16100 | > 20 µM | – | – | – | – | –
COc1ccc2c(c1O)CCC(NC(C)=O)C=C2c1cc(OC)c(OC)c(OC)c1 (centres unmarked) [Compound 69] | – | 0.4 ± 0.6 (5 μM) % | 1200 | 334 | – | – | – | – | – | –
COc1ccc2c(c1CO)CCCC=C2c1cc(OC)c(OC)c(OC)c1 [Compound 48, (3-Methoxy-9-(3,4,5-trimethoxyphenyl)-6,7-dihydro-5H-benzo[7]annulen-4-yl)methanol] | 40.3 | 76 ± 2 (5 μM) % | – | 62.8 | 0.63 ± 0.03 µM | – | – | – | – | –
COc1ccc2c(c1OC)CCCC1=C2c2cc(OC)c(OC)c(OC)c2C1=O [Compound 93, 3,4,9,10,11-Pentamethoxy-6,7-dihydrodibenzo[a,h]azulen-8(5H)-one] | 3350 | – | 3260 | 650 | > 20 µM | – | – | – | – | –
COc1cc(C2=CCCCc3c2ccc(OC)c3OCCO)cc(OC)c1OC [Compound 31, 2-((3-Methoxy-9-(3,4,5-trimethoxyphenyl)-6,7-dihydro-5H-benzo[7]annulen-4-yl)oxy)ethan-1-ol] | 3220 | – | 3760 | 855 | > 20 µM | loss of inhibitory activity | – | – | – | –
COc1ccc2c(c1C#N)CCC=C2c1cc(OC)c(OC)c(OC)c1 [Compound 39, 2-Methoxy-5-(3,4,5-trimethoxyphenyl)-7,8-dihydronaphthalene-1-carbonitrile] | – | 73 ± 0.6 (5 μM) % | – | 60.5 | 0.37 ± 0.08 µM | – | – | 38.4 | – | –
COCCOCCOc1c(OC)ccc2c1CCCC=C2c1cc(OC)c(OC)c(OC)c1 [Compound 28, 3-Methoxy-4-(2-(2-methoxyethoxy)ethoxy)-9-(3,4,5-trimethoxyphenyl)-6,7-dihydro-5H-benzo[7]annulene] | 6520 | – | 5660 | 1900 | > 20 µM | loss of inhibitory activity | – | – | – | –
